“Also recorded” adds a separate entry of the source. Where two headings read alike, the source gives them in different places.

Consider 1 compound from patent US20090312624A1, “ELECTROPHY[…] FOR COGNITIVE MODULATORS” (priority 2008, published 2009).

Experiment [1] deals with catecholamine (norepinephrine and dopamine) neurotransmission. The conditions noted are these: moderately higher doses that do not improve PFC-dependent cognition; cited from earlier work.
For another experiment, the system named is PFC-dependent cognition. The conditions noted are these: rats, cited from earlier work.
Another experiment deals with prefrontal cortex. Description: Evoked-response potential (ERP) recorded in the prefrontal cortex following electrical stimulation of the ventral subiculum of the hippocampus. The class given is in vivo, rat. The note with it: for effect on the ERP recorded in the PFC (change from baseline): cognition-enhancing dose 0.5 mg/kg i.p., 0-30 min after administration, 0.5 mg/kg. An excerpt:
Male Sprague-Dawley rats (250-350 g) were surgically implanted with 1-4 EEG recording electrodes into the prelimbic region of the PFC (coordinates: A +3.0±1.0 mm; L 0.8±0.3 mm; V −3.0) and a stimulation electrode into the subiculum/CA1 region of the hippocampus (coordinates: A −6.7; L 5.5; V −6.5). EEG signals were referenced to a ground electrode. Electrodes were held in place with acrylic cement and the animals were allowed to recover for 5-10 days prior to the measurements. Animals were provided with free access to food and water during testing.
Animals were tested during daylight hours in a Plexiglas testing chamber (32×32×40 cm) housed in a sound-attenuating chamber. Animals were first habituated to the testing chamber prior to experimentation. Field potentials/EEG signals were amplified and recorded digitally.
ERPs were constructed from peristimulus time histograms. Stimulation intensity that provides a distinct, though not large, ERP (filtered approx. 0.5-150 Hz) was first confirmed from greater than or equal to 50 stimulations that were provided at greater than or equal to 0.1 Hz. Stimulus current (0.1-3.0 mA) from a constant current source was adjusted to produce ERPs that were at least detectable from background electrical activity. Following this calibration of subiculum/CA1 stimulation intensity, ERPs were then collected from one or two 15-minute blocks comprised of a 10-min of hippocampal stimulation period ([…]) followed by 5-minutes of no stimulation. Following baseline recordings, vehicle or a putative cognitive enhancing compound (i.e., psychostimulant such as MPH or other drugs) were administered. ERPs were recorded in 15-min blocks described above for the next 60-90-minutes.
Changes in ERPs were calculated from trial-bin counts used to generate peristimulus time histograms (PSTHs). Data were collected from non-sleep EEG states only, as determined from field potential recordings or in combination with video or other activity measurements. Each PSTH was generated from randomly selected stimulus presentations. Data were expressed as a percentage of baseline ERP activity (pre-vehicle or pre-MPH) and percentage change from saline, which permits comparisons between subjects with different magnitude/shape ERPs.
Appropriate statistical comparisons, including mixed two-way ANOVA with both repeated (time)- and between (treatments)-measures, were used to determine statistical significance of candidate compound-induced changes in PFC. Analyses of ERPs as a function of dose and time and post-hoc comparisons were performed (i.e., Fisher LSD test).

Turning to `COC(=O)C(c1ccccc1)C1CCCCN1` (stereo not shown) [MPH, methylphenidate], the “selective targeting of prefrontal cortical catecholamines” value in experiment [1] is listed as “not observed”. For the same compound, the “effect on PFC-dependent cognition” value is reported as “exerting cognition-enhancing effects” in the experiment with PFC-dependent cognition (0.5 mg/kg) and “cognition-impairing; also recorded: lacking cognition-enhancing actions” in the experiment with PFC-dependent cognition (2.0 mg/kg). For the same compound, in the experiment on prefrontal cortex (30-60 minute period following drug treatment), the “components of the ERP versus pre-treatment recordings (baseline)” value is reported as “a number of components of the ERP were different”. The “effect on the ERP recorded in the PFC (change from baseline)” value in the experiment on prefrontal cortex was “clearly visible and distinct change from baseline; also recorded: alter the magnitude of specific components of the ERP”; in the experiment on prefrontal cortex (listed as methylphenidate), “significant effects”. The “effect on the ERP recorded in the PFC” value with prefrontal cortex (higher doses that do not improve PFC-dependent cognition (2.0 mg/kg i.p.)) is reported as “do not significantly affect this ERP; also recorded: not observed”.
